In patent US9222093B2, “Two-way, portable riboswitch mediated gene expression control device” (THE UNIVERSITY OF HONG KONG, priority 2011, dated 2015):

Tests used:
CsrB locus = assay: Autoaggregation and biofilm formation of ON-lacI strain harboring pLacIb-CsrB; format: cell-based, E. coli
Excerpt: CsrB locus 706 has previously been cloned into a high copy vector (plasmid) 704. Two LacIbs 112 were inserted around the transcriptional start site to place expression of CsrB locus 706 under the control of ON-lacI riboswitch 302. Since one LacIb is after the transcriptional start site, the resulting CsrB differs slightly from the native one by the extra 21 nt-sequence (i.e. LacIb). […] This CsrB-carrying vector 704 was introduced into the ON-lacI strain, and autoaggregation and biofilm formation were examined.
To measure autoaggregation, overnight cultures were diluted 1:500 and incubated at 37° C., with shaking at 220 rpm, in liquid LB medium. When cells aggregated (visualized macroscopically by the clumping or ‘fluffing’ of cells in liquid cultures), 100 μl of each cell suspension was transferred to flat-bottom 96-well plates (Iwaki, Tokyo, Japan) and the images of the cell aggregates were captured by scanning. To better visualize the cell aggregates, 1 μl of crystal violet (0.1%) was added to each cell suspension immediately prior to image capture. Cellular autoaggregation was also examined microscopically. Cell suspensions were spread on a microscope slide, heat-fixed, stained with DAPI (4′6-diamidino-2-phenylindol), and imaged using a fluorescence stereomicroscope SZX12 (Olympus, Tokyo, Japan) with DAPI filter sets.
Biofilms were formed on polystyrene, flat-bottom 96-well microtiter plates (Iwaki, Tokyo, Japan). 200 μl of each cell suspension (10^5 cells/ml) was transferred into each well of a microtiter plate, and incubated for 24 h at 37° C. in a shaker at 75 rpm. Resulting biofilms were washed thrice with PBS and air dried. Then, biofilms were stained with […] of 0.4% aqueous crystal violet solution for 15 min. Next, biofilms were washed three times with sterile distilled water and immediately destained with 200 μl of 95% ethanol. After 30 min of destaining, 100 μl of destaining solution was transferred to a new well and measured with a microtiter plate reader (SpectraMAX®340 Tunable Microplate Reader; Molecular Devices Ltd.) at 595 nm.

rpoS gene locus = assay: Acid survival of ON-lacI-rpoS strain (pH 2.0, 2 hours); format: cell-based, E. coli
Excerpt: The ON-lacI-LacIbs cassette (2500 bp) from the genome of the strain carrying the ON riboswitch of lacI is amplified using […]. Cassette 602 is composed of the cat gene, the ON-lacI riboswitch, the lacI gene, and the lacI-lacZ intergenic region containing two LacIbs. The cat gene facilitates integration of this cassette immediately upstream of any target gene via recombineering. The riboswitch cassette was inserted upstream of the ribosomal binding site of rpoS gene locus […] (FIG. 6A). Next, the native lacI was deleted from this strain, generating a new mutant strain, ON-lacI-rpoS. This strain was used to test whether rpoS gene locus 606 could be controlled by the theophylline-responsive and LacI-repressible regulation cassette 602. Since rpoS is required for acid resistance, survival of strain […] under acidic conditions was assayed. Overnight cultures were treated with acid (pH 2.0) for 2 hours, and then serially diluted in neutral medium. After culturing overnight, colony forming units (CFU) of acid-treated and untreated cells were determined Acid survival (%) was calculated using the formula: Acid survival (%)=100×(CFU of treated/CFU of untreated).

ON-lacI-rpoS cells = assay: Extracellular acetate assimilation; format: cell-based, E. coli
Excerpt: (§1) Bacterial cells switch from rapid growth during which they produce and excrete acetate (dissimilation) in the presence of abundant nutrients to slower growth supported by the import and utilization of the excreted acetate (assimilation) when glucose is exhausted. This physiological event is defined as an acetate switch, a survival response allowing cells to compete successfully during carbon starvation. It was previously reported that RpoS positively regulates consumption of acetate by activating the expression of acetyl-coenzyme A synthetase enzyme (Acs). However, the opposite results were obtained with ON-lacI-rpoS construction provided herein. […] When grown in the presence of theophylline (2 mM) and absence of IPTG, rpoS expression was shut off and accordingly, acetate assimilation was accelerated (FIG. 8A). […] The enhanced acetate assimilation was also observed with the newly constructed rpoS gene locus null mutant, shown in graph 804 (FIG. 8B). […] It is therefore apparent that RpoS represses acetate assimilation.

wild type strain = assay: Extracellular acetate assimilation, wild type strain; format: cell-based, E. coli; conditions: data not shown
Excerpt: as §1

LacI repressor protein = biological target: T1, LacI repressor protein (Escherichia coli, UniProt P03023); assay: β-galactosidase assay of lacZ in cells carrying ON-lacI riboswitch and intact lacZ (IPTG arm of two-way control); format: cell-based, E. coli MG1655; conditions: medium containing 1600 μM theophylline
T1 construct: ON-lacI riboswitch 302 was incorporated into the chromosome upstream from intact lad gene (i.e., not fused with lacZ); endogenous in cells; host or cells: E. coli MG1655 derivative with ON-lacI riboswitch on the chromosome and intact lacZ locus
Excerpt: (§2) The loxP-cat-loxP selectable cassette was inserted immediately after the stop codon of the lacZ gene on the MG1655 chromosome using recombineering methods. Next, the lacZ-loxP-cat-loxP cassette was PCR amplified and inserted (in frame) immediately prior to the stop codon of the target gene on the chromosome. The inserted lacZ fragment started from the 8th codon of the lacZ gene, and was co-transcribed and translated with the fused genes. The expression of gene-lacZ fusions was quantified using a β-galactosidase assay. Levels of β-galactosidasewere calculated using the following formula: units (U)=[…]
ON-lacI riboswitch 302 makes two-way gene regulation possible because the Lad repressor protein can be inactivated by isopropyl β-D-1-thiogalactopyranoside (IPTG). Thus, adding theophylline to the culture medium switches on lacI translation, and transcriptionally represses the target genes of LacI. In contrast. IPTG inactivates LacI by binding to the protein and derepresses transcription of the target genes.
Two-way control was verified by determining β-galactosidase levels of the cells carrying both ON-lacI riboswitch 302 and an intact lacZ gene locus. Theophylline and IPTG regulated lacZ in opposite directions in a concentration-dependent manner (graph 312, FIG. 3D). The effective concentration range of theophylline was 100-1600 μM. […]

ON-lacI riboswitch = assay: β-galactosidase assay of lacZ in cells carrying ON-lacI riboswitch and intact lacZ (theophylline arm of two-way control); format: cell-based, E. coli MG1655
Excerpt: as §2
ON-lacI riboswitch 302 was incorporated into the chromosome upstream from intact lad gene (i.e., not fused with lacZ). The LacI protein represses expression of lacZ so that ON riboswitch 302 indirectly switches off lacZ in response to theophylline.
Two-way control was verified by determining β-galactosidase levels of the cells carrying both ON-lacI riboswitch 302 and an intact lacZ gene locus. Theophylline and IPTG regulated lacZ in opposite directions in a concentration-dependent manner (graph 312, FIG. 3D). The effective concentration range of theophylline was 100-1600 μM. […] When IPTG was added to the medium containing 1600 μM theophylline, lacZ was derepressed. The effective range of IPTG was 0.16-40 μM.

lacI-lacZ fusion = assay: β-galactosidase assay of lacI-lacZ translational fusion; format: cell-based, E. coli MG1655; conditions: E. coli mutant containing ON-lacI riboswitch; with vs without theophylline
Excerpt: as §2
To engineer an ON-riboswitch of the lacI gene, riboswitch cassette 302, cat-aptamer-linker-random sequence, was integrated upstream of the ribosomal binding site of lacI-lacZ usion 304 on the chromosome using standard recombineering methods (FIG. 3A).
The resulting mutant collection was grown on X-gal plates 306 in the absence of theophylline. Approximately 2000 colonies were screened for color. Two white clones were identified. […]

ON-crp strain = assay: Motility of ON-crp strain on semisolid motility plates; format: cell-based, E. coli MG1655; conditions: theophylline ligand added; increased with higher theophylline concentrations
Description: The motility phenotype of the ON-crp strain was assayed to further confirm the effectiveness of the ON-riboswitch.

[1] = in the presence of theophylline

T1 sequence (P03023 whole entry, the tested form may be a part): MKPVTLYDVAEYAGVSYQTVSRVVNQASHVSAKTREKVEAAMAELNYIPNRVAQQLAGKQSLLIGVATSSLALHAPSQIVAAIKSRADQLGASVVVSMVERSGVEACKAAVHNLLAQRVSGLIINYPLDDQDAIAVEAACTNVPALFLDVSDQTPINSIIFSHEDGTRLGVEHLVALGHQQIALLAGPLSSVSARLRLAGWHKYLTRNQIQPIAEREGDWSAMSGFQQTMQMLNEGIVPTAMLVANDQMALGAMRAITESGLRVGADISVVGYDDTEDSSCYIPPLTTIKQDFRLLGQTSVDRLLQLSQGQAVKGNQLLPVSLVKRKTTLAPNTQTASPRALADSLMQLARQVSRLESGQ

SMILES	autoaggregation and biofilm formation (CsrB locus; IPTG added together with theophylline)	acid survival (rpoS gene locus; 40 μM IPTG in medium containing 1600 μM theophylline)	acetate assimilation (ON-lacI-rpoS cells; IPTG 1 mM added to the theophylline medium)	effect on acetate assimilation in the wild type strain (wild type strain)	effective range of IPTG (lacZ derepression) (LacI repressor protein) [µM]	autoaggregation (CsrB locus; [1])	biofilm formation (CsrB locus; [1])	lacZ expression in the presence of theophylline (ON-lacI riboswitch; ON-lacI combined with LacIbs upstream from lacZ)	effective concentration range of theophylline (lacZ regulation) (ON-lacI riboswitch; cells carrying ON-lacI riboswitch and intact lacZ, repression, saturation above the range) [µM]	lacZ regulation at theophylline concentrations less than 100 μM (ON-lacI riboswitch; theophylline less than 100 μM)	acid survival (rpoS gene locus; 1600 μM theophylline)	LacI levels in the presence of the ligand (lacI-lacZ fusion)	acetate assimilation (ON-lacI-rpoS cells; theophylline 2 mM, absence of IPTG)	motility (ON-crp strain)
CC(C)S[C@@H]1O[C@H](CO)[C@H](O)[C@H](O)[C@H]1O [IPTG, isopropyl β-D-1-thiogalactopyranoside]	restored	restored to the wild-type levels	restored to the wild-type levels	Neither theophylline nor IPTG had any effect	0.16 to 40	–	–	–	–	–	–	–	–	–
Cn1c(=O)c2[nH]cnc2n(C)c1=O [theophylline]	–	–	–	Neither theophylline nor IPTG had any effect	–	negative with respect to autoaggregation	low levels of biofilms	almost completely repressed	100 to 1600	little regulation	comparable to that of an rpoS null mutant	one fold-increase	accelerated	gained motility
